In paper PMC11292009, “Mapping protein binding sites by photoreactive fragment pharmacophores” (Communications Chemistry, 2024):
“And” between values parts separate entries of the source, which are not always exact repeats. Identical values can stand only once.

What was measured:
Format in all cases: cell-based, human
[1] = test system: PANC-1 cells; assay: MTT cell viability assay, PANC-1; details: for cell viability: replicates
Text: (§1) Pancreatic cancer cell lines PANC-1 (cat. no. CRL-1469), SW1990 (cat. no. CRL-2172) were obtained from ATCC (American Type Culture Collection). Genetically modified isogeneic colon cancer cell lines SW48-PAR and SW48-G12D were obtained from Horizon Discovery Ltd. PANC-1 (human pancreatic cancer, KRas^G12D), SW1990 (human pancreatic cancer, KRas^G12D), SW48-PAR (human colon cancer; parental cell line KRas^wt), and SW48-G12D (human colon cancer; heterozygous knockin of the KRas^G12D activating mutation) cancer cell lines were cultured in Roswell Park Memorial Institute Medium (RPMI; Biosera, Nuaille, France), supplemented with 10% heat-inactivated Fetal Bovine Serum (FBS; Biosera), and with 1% Penicillin/Streptomycin (Biosera). Cells were cultured in sterile T75 flasks with ventilation cap (Sarstedt, Nümbrecht, Germany) at 37 °C in a humidified atmosphere with 5% CO2 in ESCO CelCulture Incubator (ESCO, Friedberg, Germany). Manipulations with the cells were performed in biosafety cabinet (laminar) ESCO Sentinel Gold class II model AC2-4E8 (ESCO).
(§2) After standard harvesting of the cells by trypsin-EDTA (Biosera), 7 × 10^3 cells per well depending on the cell line, were seeded in serum-containing growth medium to 96-well plates and incubated. After 24 h, cells were treated with various concentrations of fragments (32 nM–100 μM), dissolved in serum-containing medium, and incubated under standard conditions. Control wells were treated with medium. Final concentration of serum was 2.5%, final concentration of DMSO was 0.2%. Treatment was for 72 h continuously.
(§3) Afterwards, MTT assay was performed in order to determine cell viability, by adding 20 μL of MTT solution (5 mg/mL in PBS) to each well and after 2 h of incubation at 37 °C, the supernatant was removed. The formazan crystals were dissolved in 100 μL of a 1:1 solution of DMSO (Sigma-Aldrich):EtOH (Molar Chemicals) and the absorbance was measured after 15 min at λ = 570 nm by using a microplate reader (BioTek 800TS, Agilent, Santa Clara, CA, USA). The IC50 values of the fragments were calculated using GraphPad Prism 6 (GraphPad Software, San Diego, CA, USA). The experiments were done in triplicate, and each experiment was repeated two times.

[2] = test system: SW1990 cells; assay: MTT cell viability assay, SW1990; details: for cell viability: replicates, in % (unit assumed)
Text: as §1, §2, §3

[3] = test system: SW48-G12D cells; assay: MTT cell viability assay, SW48-G12D; details: for cell viability: replicates, in % (unit assumed)
Text: as §1, §2, §3

**Q.** For `Cc1ncc(CO)c(CNC(=O)CCC2(C)N=N2)c1O` [PhP072, Cc1ncc(CO)c(c1O)CNC(=O)CCC2(C)N=N2], which IC50 ([1]; Homo sapiens, read-out: IC50, antiproliferative activity, PANC-1, MTT, 72 h) is on record?
**A.** 22.6 µM

**Q.** What about the cell viability ([1]; PANC-1, [PhP072] 3.2e-8 M, in % (unit assumed)) of the same compound?
**A.** 94.1678 and 97.1333 and 95.7988 and 102.516 and 102.977 and 106.78

**Q.** What about the cell viability ([1]; PANC-1, [PhP072] 1.6e-7 M) of the same compound?
**A.** 92.8333 and 84.2333 and 97.1333 and 102.977 (2×) and 103.899

**Q.** And the cell viability ([1]; PANC-1, [PhP072] 8e-7 M)?
**A.** 87.6436 and 92.0919 and 90.4609 and 96.2933 (2×) and 94.7953

**Q.** And the cell viability ([1]; PANC-1, [PhP072] 4e-6 M, in % (unit assumed))?
**A.** 82.1574 and 83.0471 and 79.785 and 89.6098 and 90.0707 and 84.5396

**Q.** And the cell viability ([1]; PANC-1, [PhP072] 2e-5 M, in % (unit assumed))?
**A.** 72.9643 and 73.7057 and 70.7401 and 83.3872 and 78.8931 and 79.2388

**Q.** What about the cell viability ([1]; PANC-1, [PhP072] 0.0001 M) of the same compound?
**A.** 57.9884 and 55.9125 and 55.7642 and 57.9207 and 64.7194 (2×)

**Q.** And the IC50 ([2]; Homo sapiens, read-out: IC50, antiproliferative activity, SW1990, MTT, 72 h)?
**A.** 17.2 µM

**Q.** What about the cell viability ([2]; SW1990, [PhP072] 3.2e-8 M) of the same compound?
**A.** 101.695 and 98.3609 and 102.528 and 107.265 and 99.8137 and 96.5538

**Q.** And the cell viability ([2]; SW1990, [PhP072] 1.6e-7 M)?
**A.** 103.195 and 101.49 and 102.515 and 96.4606

**Q.** What about the cell viability ([2]; SW1990, [PhP072] 8e-7 M) of the same compound?
**A.** 103.528 and 101.528 and 95.5272 and 94.039 and 99.4411 and 93.387

**Q.** And the cell viability ([2]; SW1990, [PhP072] 4e-6 M)?
**A.** 101.861 and 97.8608 and 97.1941 and 99.9069 and 97.2989 and 95.6224

**Q.** What about the cell viability ([2]; SW1990, [PhP072] 2e-5 M) of the same compound?
**A.** 90.5265 and 81.8586 and 88.0261 and 89.1956 and 90.8722 and 79.3227

**Q.** What about the cell viability ([2]; SW1990, [PhP072] 0.0001 M) of the same compound?
**A.** 62.6893 and 57.5219 and 66.8565 and 62.4641 and 63.023 and 60.1356

**Q.** What about the Antiproliferative effect ([3]; MTT, 72 h) of the same compound?
**A.** antiproliferative activity

**Q.** And the cell viability ([3]; [PhP072] 3.2e-8 M)?
**A.** 102.762 and 97.2381 and 95.6914 and 100.978 and 97.4052 and 99.447

**Q.** What about the cell viability ([3]; [PhP072] 1.6e-7 M) of the same compound?
**A.** 100.994 and 98.1219 and 99.0057 and 100.978 and 99.7022 and 99.9575

**Q.** And the cell viability ([3]; [PhP072] 8e-7 M)?
**A.** 99.8895 and 99.2267 and 100.552 and 98.9365 and 101.489

**Q.** And the cell viability ([3]; [PhP072] 4e-6 M)?
**A.** 98.5638 and 96.7962 and 95.0285 and 98.9365 and 100.723 and 98.6813

**Q.** What about the cell viability ([3]; [PhP072] 2e-5 M) of the same compound?
**A.** 91.4933 and 92.1561 and 91.9352 and 92.8111 and 94.0872 and 91.5349

**Q.** What about the cell viability ([3]; [PhP072] 0.0001 M) of the same compound?
**A.** 75.1427 and 76.0265 and 77.5732 and 78.5183 and 77.2421 and 80.3049
